Measured values published in patent US20230109839A1, “THERAPEUTIC AGENT FOR TAUOPATHIES” (SUMITOMO PHARMA CO., LTD., priority 2020, published 2023).

Target: T1, human Nav1.1 (Homo sapiens, UniProt P35498)
T1 construct: host or cells: HEK293
Assay: Amplification of Nav1.1-derived voltage-gated sodium current (Nav1.1 current), automated patch clamp (Test 1)
Type: cell-based
Conditions: HEK293 cell line stably expressing human Nav1.1; for activation at 10 µM: HEK293, Concentration for evaluation 10 μM, read-out: Nav1.1 current amplification rate (%)
Procedure: Test 1: Evaluation of the Amplification of Nav1.1-Derived Voltage-Gated Sodium Current (Nav1.1 Current) by Using a Cell Line Stably Expressing Human Nav1.1
(1) Preparation of Test Compound Solution
Test compounds were prepared by dissolving in DMSO at 200 times of the concentration at evaluation, and diluting the obtained solution to twice the concentration of evaluation with an extracellular fluid (135 mmol/L NaCl, 4 mmol/L KCl, 1 mmol/L MgCl2, 5 mmol/L CaCl2, 5 mmol/L Glucose, 10 mmol/L HEPES).
(2) Induction and Measurement of Nav1.1 Current
A HEK293 cell line stably expressing human Nav1.1 (cat #CYL3009, Eurofins DiscoverX Products, LLC, Human Embryonic Kidney 293) was purchased, and used in the present test. Nav1.1 current was induced by stimulating Ramp wave voltage. Detection of current which accompanied with the stimulation of voltage was carried out by a patch-clamp voltage-clamp method using HTS automated patch clamp system (SynchroPatch 768PE, Nanion Technologies GmbH, Germany). Only cells with more than 500 pA of voltage-gated sodium channel current were used for the evaluation of the activity of compounds on Nav1.1 current because there was the possibility that currents derived from endogenous voltage-gated sodium channels accounted for large proportion in cells with less than 500 pA of voltage-gated sodium channel current which was induced by stimulating Ramp wave voltage.
(3) Pharmacological Effect on Nav1.1 Current
The effect of test compounds on the amplification of Nav1.1-derived voltage-gated sodium current was evaluated by using a cell line stably expressing human Nav1.1 and HTS automated patch clamp system. In other words, test compounds were added in an extracellular fluid containing 1% DMSO, and evaluated as a change of the peak value of Nav1.1 current and the area under the curve (AUC).
(4) Method for Pharmacological Evaluation
The Nav1.1 current amplification rates of test compounds were calculated by the following formula:
Nav1.1 current amplification rate (%)=100×[the peak value of Nav1.1 current or the area under the curve after the addition of test compounds]/[the peak value of Nav1.1 current or the area under the curve before the addition of test compounds]−100

[1] = Concentration for evaluation 10 μM
[2] = Concentration for evaluation 3 μM

| SMILES | Nav1.1 current amplification rate (%) [1] [%] | further results |
| --- | --- | --- |
| COc1ccc(NC(=O)Cn2nc(N3CCC(C)CC3)ccc2=O)cn1 [Example 62] | 13 |  |
| COc1cncc(NC(=O)Cn2nc(N3CCC(C)CC3)ccc2=O)c1 [Example 64] | 11 |  |
| CC1CCN(c2ccc(=O)n(CC(=O)Nc3ccnc(N4CCOCC4)c3)n2)CC1 [Example 66] | 49 |  |
| Cc1nc2cc(NC(=O)Cn3nc(N4CCC(C)CC4)ccc3=O)ccc2o1 [Example 69] | 137 |  |
| Cc1noc2ccc(NC(=O)Cn3nc(N4CCC(C)CC4)ccc3=O)cc12 [Example 70] | 68 |  |
| CC1CCN(c2ccc(=O)n(CC(=O)Nc3ccn4nccc4c3)n2)CC1 [Example 71] | 131 |  |
| CC1CCN(c2ccc(=O)n(CC(=O)Nc3ccn4ccnc4c3)n2)CC1 [Example 72] | 119 |  |
| CC1CCN(c2ccc(=O)n(CC(=O)Nc3ccc4ncoc4c3)n2)CC1 [Example 73] | 92 |  |
| COc1cc(NC(=O)Cn2nc(N3CCC(C)CC3)ccc2=O)ccn1 [Example 74] | 70 |  |
| Cc1nccn1-c1cccc(NC(=O)Cn2nc(N3CCC(C)CC3)ccc2=O)c1 [Example 75] | 15 |  |
| CC1CCN(c2ccc(=O)n(CC(=O)Nc3cccc(-c4ncco4)c3)n2)CC1 [Example 78] | 78 |  |
| CC1CCN(c2ccc(=O)n(CC(=O)Nc3ccc4oc(=O)n(C)c4c3)n2)CC1 [Example 81] | 69 |  |
| CC1CCN(c2ccc(=O)n(CC(=O)Nc3ccc4oc(=O)[nH]c4c3)n2)CC1 [Example 82] | 121 |  |
| CC1CCN(c2ccc(=O)n(CC(=O)Nc3ccc4cnn(C)c4c3)n2)CC1 [Example 83] | 45 |  |
| Cc1noc2cc(NC(=O)Cn3nc(N4CCC(C)CC4)ccc3=O)ccc12 [Example 84] | 315 |  |
| CC1CCN(c2ccc(=O)n(CC(=O)Nc3ccc4ncn(C)c4c3)n2)CC1 [Example 85] | 15 |  |
| CC1CCN(c2ccc(=O)n(CC(=O)Nc3ccc4scnc4c3)n2)CC1 [Example 87] | 255 |  |
| Cc1nc2cc(NC(=O)Cn3nc(N4CCC(C)CC4)ccc3=O)ccc2s1 [Example 88] | 183 |  |
| CC1CCN(c2ccc(=O)n(CC(=O)Nc3ccc4oc(N(C)C)nc4c3)n2)CC1 [Example 91] | 93 |  |
| Cc1cc(NC(=O)Cn2nc(N3CCC(C)CC3)ccc2=O)cc2ncoc12 [Example 96] | 105 |  |
| CCc1nc2cc(NC(=O)Cn3nc(N4CCC(C)CC4)ccc3=O)ccc2o1 [Example 97] | 296 |  |
| CC1CCN(c2ccc(=O)n(CC(=O)Nc3ccc4c(c3)ncn4C)n2)CC1 [Example 98] | 15 |  |
| Cc1cc(NC(=O)Cn2nc(C3=CCC(F)(F)CC3)ccc2=O)cc(C)n1 [Example 102] |  | activation at 10 µM: 8% |

| SMILES | Nav1.1 current amplification rate (%) [1] [%] | further results |
| --- | --- | --- |
| O=C(Cn1nc(N2CCCCC2)ccc1=O)Nc1ccc(C(F)(F)F)nc1 [Example 104] |  | activation at 10 µM: 11% |
| N#Cc1cncc(NC(=O)Cn2nc(N3CCCCC3)ccc2=O)c1 [Example 108] |  | activation at 10 µM: 5% |
| N#Cc1ccc(NC(=O)Cn2nc(N3CCCCC3)ccc2=O)cn1 [Example 110] |  | activation at 10 µM: 12% |
| O=C(Cn1nc(N2CCCCC2)ccc1=O)Nc1ccnc(C(F)(F)F)c1 [Example 113] |  | activation at 10 µM: 30% |
| N#Cc1cc(NC(=O)Cn2nc(N3CCCCC3)ccc2=O)ccn1 [Example 116] |  | activation at 10 µM: 12% |
| Cc1nc2cc(NC(=O)Cn3nc(N4CCCCC4)ccc3=O)ccc2o1 [Example 118] |  | activation at 10 µM: 7% |
| Cc1ccc(-c2ccc(=O)n(CC(=O)N3CCc4ccccc43)n2)cc1 [Example 157] |  | Nav1.1 current amplification rate (%) (Concentration for evaluation 50 μM): 29% |
| Cc1ccc(-c2ccc(=O)n(CC(=O)N3CCc4cc(N5CCOCC5)ccc43)n2)cc1 [Example 158] | 122 |  |
| CN(C)c1cc(N2CCC3(CCC3)C2)nn(CC(=O)Nc2ccn3ccnc3c2)c1=O [Example 210] |  | activation at 10 µM: 178% |
| Cc1noc2cc(NC(=O)Cn3nc(C4=CCC(C)CC4)ccc3=O)ccc12 (stereo not shown) [Example 240] | 241 |  |
| CC1CC=C(c2ccc(=O)n(CC(=O)Nc3ccn4ccnc4n3)n2)CC1 (stereo not shown) [Example 242] | 97 |  |
| CC1CC=C(c2ccc(=O)n(CC(=O)Nc3ccc4oc(C(F)F)nc4c3)n2)CC1 (stereo not shown) [Example 243] | 276 |  |
| CC1CC=C(c2ccc(=O)n(CC(=O)N3CCc4c(N5CCOCC5)cccc43)n2)CC1 (stereo not shown) [Example 245] |  | Nav1.1 current amplification rate (%) (Concentration for evaluation 1 μM): 393% |
| CC1CC=C(c2ccc(=O)n(CC(=O)N3CCc4cc(N5CCOCC5)ccc43)n2)CC1 (stereo not shown) [Example 246] | 136 |  |
| CC1CC=C(c2ccc(=O)n(CC(=O)N3CCc4c3ccnc4Cl)n2)CC1 (stereo not shown) [Example 247] | 53 |  |
| CC1CC=C(c2ccc(=O)n(CC(=O)N3CCc4c(-c5cccnc5)cccc43)n2)CC1 (stereo not shown) [Example 248] |  | Nav1.1 current amplification rate (%) [2]: 392% |
| COc1ncc(-c2cccc3c2CCN3C(=O)Cn2nc(C3=CCC(C)CC3)ccc2=O)cn1 (stereo not shown) [Example 249] |  | Nav1.1 current amplification rate (%) [2]: 584% |
| CC1CC=C(c2ccc(=O)n(CC(=O)N3CCc4c(-c5ccncc5)cccc43)n2)CC1 (stereo not shown) [Example 250] |  | Nav1.1 current amplification rate (%) [2]: 564% |
| CC1CC=C(c2ccc(=O)n(CC(=O)N3CCc4c(-c5ccnn5C)cccc43)n2)CC1 (stereo not shown) [Example 251] |  | Nav1.1 current amplification rate (%) [2]: 307% |
| CC1CC=C(c2ccc(=O)n(CC(=O)N3CCc4c(-c5ccn(C)n5)cccc43)n2)CC1 (stereo not shown) [Example 252] |  | Nav1.1 current amplification rate (%) [2]: 254% |
| CC1CC=C(c2ccc(=O)n(CC(=O)N3CCc4c(-c5ccnnc5)cccc43)n2)CC1 (stereo not shown) [Example 253] |  | Nav1.1 current amplification rate (%) [2]: 455% |
| CC1CC=C(c2ccc(=O)n(CC(=O)N3CCc4c(-c5cn[nH]c5)cccc43)n2)CC1 (stereo not shown) [Example 254] |  | Nav1.1 current amplification rate (%) [2]: 309% |

Now from value to compound, other results behind:

| Nav1.1 current amplification rate (%) [1] [%] | SMILES | further results |
| --- | --- | --- |
| 49 | CC1CCN(c2ccc(=O)n(CC(=O)Nc3cncc(Cl)c3)n2)CC1 [Example 63] |  |
| 17 | CC1CCN(c2ccc(=O)n(CC(=O)Nc3cncc(F)c3)n2)CC1 [Example 65] |  |
| 177 | CC1CCN(c2ccc(=O)n(CC(=O)Nc3cccc(-n4ccnc4)c3)n2)CC1 [Example 67] |  |
| 42 | Cc1nc2ccc(NC(=O)Cn3nc(N4CCC(C)CC4)ccc3=O)cc2o1 [Example 68] |  |
| 93 | CC1CCN(c2ccc(=O)n(CC(=O)Nc3cccc(-c4cnco4)c3)n2)CC1 [Example 77] |  |
| 165 | CC1CCN(c2ccc(=O)n(CC(=O)Nc3ccc(C(=O)N4CCCC4)cc3)n2)CC1 [Example 79] |  |
| 131 | CC1CCN(c2ccc(=O)n(CC(=O)Nc3cccc(-c4nccs4)c3)n2)CC1 [Example 80] |  |
| 73 | CC1CCN(c2ccc(=O)n(CC(=O)Nc3ccc4c(c3)NC(=O)C4)n2)CC1 [Example 86] |  |
| 31 | CC1CCN(c2ccc(=O)n(CC(=O)Nc3ccc4nccn4c3)n2)CC1 [Example 90] |  |
| 88 | CC1CCN(c2ccc(=O)n(CC(=O)Nc3ccc4sc(N(C)C)nc4c3)n2)CC1 [Example 92] |  |
| 65 | CC1CCN(c2ccc(=O)n(CC(=O)Nc3ccc4c(c3)CCNC4=O)n2)CC1 [Example 93] |  |
| 198 | CC1CCN(c2ccc(=O)n(CC(=O)Nc3cc(Cl)c4ocnc4c3)n2)CC1 [Example 94] |  |
| 103 | COc1nc2cc(NC(=O)Cn3nc(N4CCC(C)CC4)ccc3=O)ccc2o1 [Example 99] |  |
| 46 | Cc1ccc(-c2ccc(=O)n(CC(=O)Nc3cncnc3)n2)cc1 [Example 141] |  |
| 34 | Cc1ccc(-c2ccc(=O)n(CC(=O)Nc3ccnnc3)n2)cc1 [Example 142] |  |
| 33 | Cc1ccc(-c2nn(CC(=O)Nc3ccn4ccnc4c3)c(=O)c(C)c2C)cc1 [Example 156] |  |
| 32 | Cc1ccc(-c2ccc(=O)n(CC(=O)N3CCc4cnccc43)n2)cc1 [Example 159] |  |
| 310 | COc1nc2cc(NC(=O)Cn3nc(C4=CCC(C)CC4)ccc3=O)ccc2o1 (stereo not shown) [Example 239] |  |
| 260 | CC1CC=C(c2ccc(=O)n(CC(=O)Nc3cc(F)c4ocnc4c3)n2)CC1 (stereo not shown) [Example 241] |  |
